Several values for one entry are separate records, joined by “and”; a condition that tells them apart may be missing. Equal entries are not always repeated. Toxic doses and inconclusive results are not listed. How the source made its calls: active means survival T/C of 150% or more; inactive means T/C below 125% in these data. Square brackets hold non-standard residues; d marks the D form. Peptide text beside a SMILES is read from it. ξ: configuration not given here. ξPhe(4-N(CH2CH2Cl)2) = NC(Cc1ccc(N(CCCl)CCCl)cc1)C(=O)O
Test system: P388 leukemia ip, CD2F1 mice, survival T/C
Assay: NCI In Vivo Anticancer Drug Screen. Data for tumor model P388 Leukemia (intraperitoneal) in CD2F1 (CDF1) mice
Settings: endpoint: median survival time, higher = longer survival
Outline: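 Mice carrying the transplanted tumor received test compound or vehicle. Survival was recorded in each group, and the value is the treated-group measurement divided by that of the vehicle-treated control group.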

[1] = dose: 12.5 mg/kg/injection, schedule: Q01DX005 (ip), vehicle: Klucel (hydroxypropylcellulose) (HPC)
[2] = dose: 25.0 mg/kg/injection, schedule: Q01DX005 (ip), vehicle: Klucel (hydroxypropylcellulose) (HPC)
[3] = dose: 50.0 mg/kg/injection, schedule: Q01DX005 (ip), vehicle: Klucel (hydroxypropylcellulose) (HPC)
[4] = dose: 100.0 mg/kg/injection, schedule: Q01DX005 (ip), vehicle: Klucel (hydroxypropylcellulose) (HPC)
[5] = dose: 200.0 mg/kg/injection, schedule: Q01DX005 (ip), vehicle: Klucel (hydroxypropylcellulose) (HPC)
[6] = dose: 60.0 mg/kg/injection, schedule: Q01DX005 (ip), vehicle: saline with Tween-80
[7] = dose: 120.0 mg/kg/injection, schedule: Q01DX005 (ip), vehicle: saline with Tween-80
[8] = dose: 240.0 mg/kg/injection, schedule: Q01DX005 (ip), vehicle: saline with Tween-80
[9] = dose: 100.0 mg/kg/injection, schedule: Q01DX009 (ip), vehicle: saline with Tween-80

Measured: T/C

CC/C=C/C(O)C(O)C1=C(C)C(=O)C2(O1)C(=O)NC(OC)(C(=O)c1ccccc1)C2O (stereo not given)
inactive: [1] 99 % of control | [2] 99 % of control | [3] 94 % of control | [4] 96 % of control | dose: 150.0 mg/kg/injection, schedule: Q01DX005 (ip), vehicle: Klucel (hydroxypropylcellulose) (HPC) 103 % of control | [5] 106 % of control

O=C(Nc1ccc(Cl)cc1)Nc1nnc2nc(C(C(=O)c3ccc(F)cc3)c3nc4nnc(NC(=O)Nc5ccc(Cl)cc5)n4[nH]c3=O)c(=O)[nH]n12
inactive: [6] 103 % of control | [7] 93 % of control | [8] 86 % of control

O=C(CCCCC(=O)N/N=C\c1ccccn1)N/N=C\c1ccccn1
inactive: [9] 109 % of control | dose: 200.0 mg/kg/injection, schedule: Q01DX009 (ip), vehicle: saline with Tween-80 100 % of control | dose: 400.0 mg/kg/injection, schedule: Q01DX009 (ip), vehicle: saline with Tween-80 109 % of control

Nc1cc2c(c[n+](Cc3ccccc3)c3ccccc23)c2ccccc12
inactive: dose: 0.2 mg/kg/injection, schedule: Q04DX003 (ip), vehicle: water 105 % of control | dose: 0.39 mg/kg/injection, schedule: Q04DX003 (ip), vehicle: water 102 % of control | dose: 0.78 mg/kg/injection, schedule: Q04DX003 (ip), vehicle: water 102 % of control | dose: 1.56 mg/kg/injection, schedule: Q04DX003 (ip), vehicle: water 105 % of control

CC(=O)SCC1C(=O)CCCC1=O
inactive: dose: 12.5 mg/kg/injection, schedule: Q04DX003 (ip), vehicle: saline with Tween-80 104 % of control | dose: 25.0 mg/kg/injection, schedule: Q04DX003 (ip), vehicle: saline with Tween-80 101 % of control and 109 % of control | dose: 50.0 mg/kg/injection, schedule: Q04DX003 (ip), vehicle: saline with Tween-80 100 % of control and 124 % of control

Cc1c2cnccc2c(C)c2c1c1ccccc1n2Cc1ccccc1
inactive: dose: 6.25 mg/kg/injection, schedule: Q04DX003 (ip), vehicle: distilled water + Tween-80 97 % of control | dose: 12.5 mg/kg/injection, schedule: Q04DX003 (ip), vehicle: distilled water + Tween-80 95 % of control | dose: 25.0 mg/kg/injection, schedule: Q04DX003 (ip), vehicle: distilled water + Tween-80 95 % of control | dose: 50.0 mg/kg/injection, schedule: Q04DX003 (ip), vehicle: distilled water + Tween-80 95 % of control | dose: 100.0 mg/kg/injection, schedule: Q04DX003 (ip), vehicle: distilled water + Tween-80 99 % of control | dose: 200.0 mg/kg/injection, schedule: Q04DX003 (ip), vehicle: distilled water + Tween-80 94 % of control

O=C(Nc1ccc(NC2=NCCN2)cc1)c1cc(Cl)cc(C(=O)Nc2ccc(NC3=NCCN3)cc2)c1
inactive: [1] 98 % of control | [2] 102 % of control

OCCCN1CNC(=S)NC1
inactive: dose: 12.5 mg/kg/injection, schedule: Q01DX009 (ip), vehicle: saline 106 % of control and 111 % of control | dose: 25.0 mg/kg/injection, schedule: Q01DX009 (ip), vehicle: saline 100 % of control and 105 % of control | dose: 50.0 mg/kg/injection, schedule: Q01DX009 (ip), vehicle: saline 100 % of control and 97 % of control | dose: 100.0 mg/kg/injection, schedule: Q01DX009 (ip), vehicle: saline 99 % of control and 102 % of control

N#CC(Nc1ncccn1)c1ccccc1 (stereo not given)
inactive: [6] 97 % of control | [7] 94 % of control | [8] 91 % of control

COc1ccc(Cl)[n+]([O-])n1
inactive: dose: 6.25 mg/kg/injection, schedule: Q04DX002 (ip), vehicle: Klucel (hydroxypropylcellulose) (HPC) 111 % of control | dose: 12.5 mg/kg/injection, schedule: Q04DX002 (ip), vehicle: Klucel (hydroxypropylcellulose) (HPC) 122 % of control | dose: 25.0 mg/kg/injection, schedule: Q04DX002 (ip), vehicle: Klucel (hydroxypropylcellulose) (HPC) 120 % of control | dose: 25.0 mg/kg/injection, schedule: Q04DX002 (ip), vehicle: saline 104 % of control | dose: 50.0 mg/kg/injection, schedule: Q04DX002 (ip), vehicle: Klucel (hydroxypropylcellulose) (HPC) 117 % of control | dose: 50.0 mg/kg/injection, schedule: Q04DX002 (ip), vehicle: saline 122 % of control | dose: 100.0 mg/kg/injection, schedule: Q04DX002 (ip), vehicle: saline 106 % of control

NC(CO)C(=O)NC(CCC(=O)O)C(=O)NC(CO)C(=O)NC(CCC(=O)O)C(=O)NC(Cc1ccc(N(CCCl)CCCl)cc1)C(=O)O (stereo not given) (H-SESE[ξPhe(4-N(CH2CH2Cl)2)]-OH; configuration not given here)
inactive: dose: 5.0 mg/kg/injection, schedule: Q04DX003 (ip), vehicle: water 96 % of control | dose: 10.0 mg/kg/injection, schedule: Q04DX003 (ip), vehicle: water 98 % of control | dose: 20.0 mg/kg/injection, schedule: Q04DX003 (ip), vehicle: water 101 % of control | dose: 40.0 mg/kg/injection, schedule: Q04DX003 (ip), vehicle: water 102 % of control and 111 % of control | dose: 80.0 mg/kg/injection, schedule: Q04DX003 (ip), vehicle: water 117 % of control

COc1ccc(S(=O)(=O)O)cc1N=N/C(=N/Nc1cc(S(=O)(=O)O)ccc1OC)C(=O)Nc1ccccc1
inactive: dose: 60.0 mg/kg/injection, schedule: Q01DX005 (ip), vehicle: Klucel (hydroxypropylcellulose) (HPC) 101 % of control | dose: 120.0 mg/kg/injection, schedule: Q01DX005 (ip), vehicle: Klucel (hydroxypropylcellulose) (HPC) 101 % of control | dose: 240.0 mg/kg/injection, schedule: Q01DX005 (ip), vehicle: Klucel (hydroxypropylcellulose) (HPC) 105 % of control

COc1cccc2c1C(=O)c1c(O)c3c(c(O)c1C2=O)CC(O)(C1(C)OCC(C)(C)CO1)CC3OC1CC(N)C(O)C(C)O1 (stereo not given)
inactive: dose: 3.13 mg/kg/injection, schedule: Q04DX003 (ip), vehicle: water 104 % of control | dose: 6.25 mg/kg/injection, schedule: Q04DX003 (ip), vehicle: water 106 % of control | dose: 12.5 mg/kg/injection, schedule: Q04DX003 (ip), vehicle: water 111 % of control | dose: 25.0 mg/kg/injection, schedule: Q04DX003 (ip), vehicle: water 104 % of control | dose: 50.0 mg/kg/injection, schedule: Q04DX003 (ip), vehicle: water 95 % of control

COc1cc(C(O)CCBr)c(OC)cc1C (stereo not given)
inactive: [6] 100 % of control | [7] 100 % of control | [8] 95 % of control

C=CCC(O)C(=O)OC1CC(C)CCC1C(C)(C)c1ccccc1 (stereo not given)
inactive: [6] 106 % of control | [7] 100 % of control | [8] 107 % of control

COC(=O)C1(C(C)C)N=C(c2ccccc2)OO1 (stereo not given)
inactive: dose: 25.0 mg/kg/injection, schedule: Q01DX009 (ip), vehicle: saline with Tween-80 91 % of control | dose: 50.0 mg/kg/injection, schedule: Q01DX009 (ip), vehicle: saline with Tween-80 100 % of control | [9] 104 % of control

O=c1[nH]c(=S)c2c(n1CCCO)CCC2
inactive: [3] 97 % of control | [4] 101 % of control | [5] 105 % of control

CCOC(=O)c1[nH]c(=S)sc1N
inactive: [6] 99 % of control | [7] 92 % of control | [8] 90 % of control

COC(=O)CC1(C(=O)OC)C2=C(CCCC2)N2CCCC21 (stereo not given)
inactive: dose: 21.88 mg/kg/injection, schedule: Q01DX009 (ip), vehicle: Klucel (hydroxypropylcellulose) (HPC) 102 % of control | dose: 43.75 mg/kg/injection, schedule: Q01DX009 (ip), vehicle: Klucel (hydroxypropylcellulose) (HPC) 102 % of control | dose: 87.5 mg/kg/injection, schedule: Q01DX009 (ip), vehicle: Klucel (hydroxypropylcellulose) (HPC) 100 % of control | dose: 175.0 mg/kg/injection, schedule: Q01DX009 (ip), vehicle: Klucel (hydroxypropylcellulose) (HPC) 100 % of control

O=S(O)O
inactive: dose: 50.0 mg/kg/injection, schedule: Q01DX005 (ip), vehicle: saline 108 % of control | dose: 100.0 mg/kg/injection, schedule: Q01DX005 (ip), vehicle: saline 101 % of control | dose: 200.0 mg/kg/injection, schedule: Q01DX005 (ip), vehicle: saline 109 % of control | dose: 400.0 mg/kg/injection, schedule: Q01DX005 (ip), vehicle: saline 116 % of control

OCC1CC2(C1)CC(CO)C2 (stereo not given)
inactive: dose: 100.0 mg/kg/injection, schedule: Q01DX001 (ip), vehicle: saline with Tween-80 97 % of control | dose: 200.0 mg/kg/injection, schedule: Q01DX001 (ip), vehicle: saline with Tween-80 104 % of control | dose: 400.0 mg/kg/injection, schedule: Q01DX001 (ip), vehicle: saline with Tween-80 99 % of control

Reference: PubChem BioAssay AID330 (DTP/NCI, 2004)
